# Test results as given in patent US20050222200A1, “AMIDE DERIVATIVES AS ION CHANNEL LIGANDS AND PHARMACEUTICAL COMPOSITIONS AND METHODS OF USING THE SAME” (Renovis, Inc., priority 2003, published 2005).
# Biological target: T1, VR1 (Homo sapiens, UniProt Q8NER1)
# T1 construct: expressed in transfected cells; host or cells: 293 cells ("293 neurons" [sic])
# Test: High throughput calcium imaging assay of VR1 antagonists (Fura2, Flex Station, 96 well); note: test concentration or dose not given here
# Format: cell-based
# Conditions: Table 1 activity class
# T1 sequence (Q8NER1 whole entry, species assumed): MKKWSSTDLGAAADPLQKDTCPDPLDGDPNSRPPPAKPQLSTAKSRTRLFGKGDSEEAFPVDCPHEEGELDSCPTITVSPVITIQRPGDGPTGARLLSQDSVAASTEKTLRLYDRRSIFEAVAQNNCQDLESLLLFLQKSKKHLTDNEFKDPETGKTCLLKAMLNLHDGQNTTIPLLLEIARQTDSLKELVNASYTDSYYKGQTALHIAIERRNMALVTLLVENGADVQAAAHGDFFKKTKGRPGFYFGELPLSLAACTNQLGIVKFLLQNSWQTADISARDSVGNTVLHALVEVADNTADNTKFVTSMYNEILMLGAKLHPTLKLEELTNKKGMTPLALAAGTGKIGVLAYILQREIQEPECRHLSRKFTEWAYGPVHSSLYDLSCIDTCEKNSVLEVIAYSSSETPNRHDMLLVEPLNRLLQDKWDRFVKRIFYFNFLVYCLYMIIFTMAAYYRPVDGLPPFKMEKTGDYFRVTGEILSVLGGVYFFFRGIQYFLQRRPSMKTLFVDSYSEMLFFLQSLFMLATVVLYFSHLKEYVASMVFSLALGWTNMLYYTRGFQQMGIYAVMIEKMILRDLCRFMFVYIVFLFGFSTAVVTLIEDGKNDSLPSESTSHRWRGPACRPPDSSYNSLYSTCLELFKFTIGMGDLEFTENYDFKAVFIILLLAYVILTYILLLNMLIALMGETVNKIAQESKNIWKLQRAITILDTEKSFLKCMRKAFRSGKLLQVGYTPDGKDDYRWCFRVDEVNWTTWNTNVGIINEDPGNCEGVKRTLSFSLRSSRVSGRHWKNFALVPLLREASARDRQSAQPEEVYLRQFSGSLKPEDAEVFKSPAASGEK
row,Structure (SMILES),inhibition of calcium ion influx induced by capsaicin stimulation
1,Cc1nccc(NC(=O)c2ccc(/C=C/C(C)(C)C)cc2)n1 [Compound 77],+ (compound exhibited 0-25% inhibition of calcium ion influx induced by capsaicin stimulation)
2,CC(C)(C)/C=C/c1ccc(C(=O)Nc2ccc3ncccc3c2)cc1 [Compound 78],++++ (compound exhibited 75% or greater inhibition of calcium ion influx induced by capsaicin stimulation)
3,CC(C)(C)/C=C/c1ccc(C(=O)NCc2cccnc2)cc1 [Compound 80],+ (compound exhibited 0-25% inhibition of calcium ion influx induced by capsaicin stimulation)
4,CN(C)c1ccc(CNC(=O)c2ccc(/C=C/C(C)(C)C)cc2)cc1 [Compound 81],+ (compound exhibited 0-25% inhibition of calcium ion influx induced by capsaicin stimulation)
5,COc1ccccc1CNC(=O)c1ccc(/C=C/C(C)C)cc1 [Compound 87],+ (compound exhibited 0-25% inhibition of calcium ion influx induced by capsaicin stimulation)
6,CC(C)/C=C/c1ccc(C(=O)NCc2ccco2)cc1 [Compound 88],++ (compound exhibited 25-50% inhibition of calcium ion influx induced by capsaicin stimulation)
7,CC(C)/C=C/c1ccc(C(=O)NCc2ccncc2)cc1 [Compound 93],+ (compound exhibited 0-25% inhibition of calcium ion influx induced by capsaicin stimulation)
8,CC(C)/C=C/c1ccc(C(=O)NC(c2ccccc2)c2ccccc2)cc1 [Compound 95],++ (compound exhibited 25-50% inhibition of calcium ion influx induced by capsaicin stimulation)
9,CC(C)/C=C/c1ccc(C(=O)NCCc2ccccc2Cl)cc1 [Compound 98],+ (compound exhibited 0-25% inhibition of calcium ion influx induced by capsaicin stimulation)
10,CC(C)/C=C/c1ccc(C(=O)Nc2ccncc2)cc1 [Compound 105],++ (compound exhibited 25-50% inhibition of calcium ion influx induced by capsaicin stimulation)
11,CC(C)/C=C/c1ccc(C(=O)Nc2cccnc2)cc1 [Compound 106],++ (compound exhibited 25-50% inhibition of calcium ion influx induced by capsaicin stimulation)
12,CC(C)/C=C/c1ccc(C(=O)NCC2CCCO2)cc1 (stereo not shown) [Compound 109],++ (compound exhibited 25-50% inhibition of calcium ion influx induced by capsaicin stimulation)
13,CC(C)/C=C/c1ccc(C(=O)NCc2ccc3c(c2)OCO3)cc1 [Compound 111],+++ (compound exhibited 50-75% inhibition of calcium ion influx induced by capsaicin stimulation)
14,CC(C)/C=C/c1ccc(C(=O)NCCN2CCOCC2)cc1 [Compound 112],++ (compound exhibited 25-50% inhibition of calcium ion influx induced by capsaicin stimulation)
15,CC(C)/C=C/c1ccc(C(=O)NCCc2ccc(S(N)(=O)=O)cc2)cc1 [Compound 116],+ (compound exhibited 0-25% inhibition of calcium ion influx induced by capsaicin stimulation)
16,COc1cc(CNC(=O)c2ccc(/C=C/C(C)C)cc2)cc(OC)c1OC [Compound 117],+ (compound exhibited 0-25% inhibition of calcium ion influx induced by capsaicin stimulation)
17,CC(C)/C=C/c1ccc(C(=O)NCc2ccccn2)cc1 [Compound 120],+ (compound exhibited 0-25% inhibition of calcium ion influx induced by capsaicin stimulation)
18,COc1ccc(CCNC(=O)c2ccc(/C=C/C(C)C)cc2)cc1OC [Compound 121],+++ (compound exhibited 50-75% inhibition of calcium ion influx induced by capsaicin stimulation)
19,CC(C)/C=C/c1ccc(C(=O)NCCc2c[nH]c3ccccc23)cc1 [Compound 123],+ (compound exhibited 0-25% inhibition of calcium ion influx induced by capsaicin stimulation)
